The conditions of series [1]: background statement on Losartan; cited from earlier work.
The nature of series [2]: Pharmacokinetic study: plasma compound (II) (Losartan) after oral dosing of compounds of formula (I). It is filed as in vivo. The following applies: male Kumin mice, fasted, single oral gavage dose 5.8 mg/kg referenced to compound (II). The protocol: Pharmacokinetic studies. The pharmacokinetics (PK) of compounds of formula (I) as well as Losartan were investigated in male Kumin mice. There were six mice per group and nine groups for this study. All mice were fasted overnight, following a single dose of 5.8 mg/kg referenced to the amount of metabolite, the compound of formula (2) from every compound of formula (1) studied. All mice were given dosing orally by gavage. The dosing vehicle used was propyleneglycol:water (1:1). The mice were fed 4 h post dose. Blood samples were collected at 0, 15, 30, 45 min, 1, 2, 4, 7, 10 and 15 h oral dosing. Approximately […] of blood was collected from the jugular vein in tubes containing EDTA, and plasma was obtained by centrifugation. Plasma samples were stored at −20° C. until analysis. Samples were analyzed for the compound of formula (II), (1-((2′-(2H-tetrazol-5-yl)biphenyl-4-yl)methyl)-2-butyl-4-chloro-1H-imidazol-5-yl)methanol, by LC/MS/MS.

[3] abbreviates: compound (II) (Losartan) measured in plasma.

We go through two molecules from US20100184814A1, “Ester Derivatives of Losartan, Methods for Their Preparation, and Uses Thereof” (priority 2009, published 2010).

With `CCCCc1nc(Cl)c(CO)n1Cc1ccc(-c2ccccc2-c2nn[nH]n2)cc1` [Losartan, (1-((2′-(2H-tetrazol-5-yl)biphenyl-4-yl)methyl)-2-butyl-4-chloro-1H-imidazol-5-yl)methanol], in series [1], the bioavailability is recorded as 25-35% and the half-life (usually how long it takes for the measured level to halve) is 1 to 2 h.

Take `CCCCc1nc(Cl)c(COC(=O)CN)n1Cc1ccc(-c2ccccc2-c2nn[nH]n2)cc1` [Compound (118), (S)-(1-((2′-(2H-tetrazol-5-yl)biphenyl-4-yl)methyl)-2-butyl-4-chloro-1H-imidazol-5-yl)methyl 2-aminoacetate]: in series [2] (setting [3]), the “Bioavailability of compound (II)” value is 19% and the “Half-time (T1/2) of compound (II)” value was determined as 1.9 h. The Cmax in series [2] (compound (II) (Losartan) measured in plasma by LC/MS/MS, read-out: Maximum Blood Concentration (Cmax) of compound (II)) was 504 nM.
